Patent publication US8192962B2, “Processes for detecting toxic substances” (Daikin Industries, Ltd., priority 2001, dated 2012)

System: Detoxification protein genes
Assay: DNA chip mRNA expression in yeast, detoxification protein genes (Table 8)
Assay type: cell-based, Saccharomyces cerevisiae S288C
Procedure, shortened: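 Chemical exposure: 2 h, log-phase S. cerevisiae S288C, YPD, 25° C., dose set to inhibit growth without death. Profiling: mRNA labeled by reverse transcription with Cy3- or Cy5-dUTP, hybridized to whole-genome array. Output: fluorescence ratio against untreated culture.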

Q: With `[Cl][Pb][Cl]` [(4), PbCl2] as the compound, how does the “The level of expressed mRNA in the presence of chemical substance/The level of expressed mRNA in the absence of chemical substance” value (yeast gene YBL064C) read?
A: 1.7

Q: And the “The level of expressed mRNA in the presence of chemical substance/The level of expressed mRNA in the absence of chemical substance” value (yeast gene YBR008C)?
A: 0.7

Q: What about the “The level of expressed mRNA in the presence of chemical substance/The level of expressed mRNA in the absence of chemical substance” value (yeast gene YBR145W) of the same compound?
A: 0.9

Q: What about the “The level of expressed mRNA in the presence of chemical substance/The level of expressed mRNA in the absence of chemical substance” value (yeast gene YBR244W) of the same compound?
A: 0.9

Q: What about the “The level of expressed mRNA in the presence of chemical substance/The level of expressed mRNA in the absence of chemical substance” value (yeast gene YBR293W) of the same compound?
A: 1.8

Q: What about the “The level of expressed mRNA in the presence of chemical substance/The level of expressed mRNA in the absence of chemical substance” value (yeast gene YCL035C) of the same compound?
A: 1.7

Q: What about the “The level of expressed mRNA in the presence of chemical substance/The level of expressed mRNA in the absence of chemical substance” value (yeast gene YCL069W) of the same compound?
A: 0.8

Q: What about the “The level of expressed mRNA in the presence of chemical substance/The level of expressed mRNA in the absence of chemical substance” value (yeast gene YCR083W) of the same compound?
A: 1.8

Q: What about the “The level of expressed mRNA in the presence of chemical substance/The level of expressed mRNA in the absence of chemical substance” value (yeast gene YDL100C) of the same compound?
A: 0.8

Q: What about the “The level of expressed mRNA in the presence of chemical substance/The level of expressed mRNA in the absence of chemical substance” value (yeast gene YDL168W) of the same compound?
A: 0.9

Q: And the “The level of expressed mRNA in the presence of chemical substance/The level of expressed mRNA in the absence of chemical substance” value (yeast gene YDR256C)?
A: 1.3

Q: What about the “The level of expressed mRNA in the presence of chemical substance/The level of expressed mRNA in the absence of chemical substance” value (yeast gene YDR453C) of the same compound?
A: 3.0

Q: What about the “The level of expressed mRNA in the presence of chemical substance/The level of expressed mRNA in the absence of chemical substance” value (yeast gene YDR513W) of the same compound?
A: 2.6

Q: And the “The level of expressed mRNA in the presence of chemical substance/The level of expressed mRNA in the absence of chemical substance” value (yeast gene YDR538W)?
A: 1.2

Q: And the “The level of expressed mRNA in the presence of chemical substance/The level of expressed mRNA in the absence of chemical substance” value (yeast gene YEL027W)?
A: 1.1

Q: What about the “The level of expressed mRNA in the presence of chemical substance/The level of expressed mRNA in the absence of chemical substance” value (yeast gene YEL065W) of the same compound?
A: 0.4

Q: What about the “The level of expressed mRNA in the presence of chemical substance/The level of expressed mRNA in the absence of chemical substance” value (yeast gene YER185W) of the same compound?
A: 7.0

Q: And the “The level of expressed mRNA in the presence of chemical substance/The level of expressed mRNA in the absence of chemical substance” value (yeast gene YFL050C)?
A: 2.2

Q: And the “The level of expressed mRNA in the presence of chemical substance/The level of expressed mRNA in the absence of chemical substance” value (yeast gene YGL013C)?
A: 0.7

Q: And the “The level of expressed mRNA in the presence of chemical substance/The level of expressed mRNA in the absence of chemical substance” value (yeast gene YGL254W)?
A: 0.6

Q: And the “The level of expressed mRNA in the presence of chemical substance/The level of expressed mRNA in the absence of chemical substance” value (yeast gene YGR088W)?
A: 2.4

Q: What about the “The level of expressed mRNA in the presence of chemical substance/The level of expressed mRNA in the absence of chemical substance” value (yeast gene YGR138C) of the same compound?
A: 1.2

Q: What about the “The level of expressed mRNA in the presence of chemical substance/The level of expressed mRNA in the absence of chemical substance” value (yeast gene YGR197C) of the same compound?
A: 1.0

Q: What about the “The level of expressed mRNA in the presence of chemical substance/The level of expressed mRNA in the absence of chemical substance” value (yeast gene YGR209C) of the same compound?
A: 1.5

Q: And the “The level of expressed mRNA in the presence of chemical substance/The level of expressed mRNA in the absence of chemical substance” value (yeast gene YGR224W)?
A: 1.2

Q: And the “The level of expressed mRNA in the presence of chemical substance/The level of expressed mRNA in the absence of chemical substance” value (yeast gene YHL040C)?
A: 0.4

Q: What about the “The level of expressed mRNA in the presence of chemical substance/The level of expressed mRNA in the absence of chemical substance” value (yeast gene YHL047C) of the same compound?
A: 1.0

Q: And the “The level of expressed mRNA in the presence of chemical substance/The level of expressed mRNA in the absence of chemical substance” value (yeast gene YHR008C)?
A: 1.8

Q: What about the “The level of expressed mRNA in the presence of chemical substance/The level of expressed mRNA in the absence of chemical substance” value (yeast gene YHR048W) of the same compound?
A: 1.7

Q: And the “The level of expressed mRNA in the presence of chemical substance/The level of expressed mRNA in the absence of chemical substance” value (yeast gene YHR053C)?
A: 1.1

Q: What about the “The level of expressed mRNA in the presence of chemical substance/The level of expressed mRNA in the absence of chemical substance” value (yeast gene YHR055C) of the same compound?
A: 1.2

Q: And the “The level of expressed mRNA in the presence of chemical substance/The level of expressed mRNA in the absence of chemical substance” value (yeast gene YIR002C)?
A: 0.6

Q: What about the “The level of expressed mRNA in the presence of chemical substance/The level of expressed mRNA in the absence of chemical substance” value (yeast gene YIR038C) of the same compound?
A: 2.0

Q: And the “The level of expressed mRNA in the presence of chemical substance/The level of expressed mRNA in the absence of chemical substance” value (yeast gene YJL101C)?
A: 1.2

Q: And the “The level of expressed mRNA in the presence of chemical substance/The level of expressed mRNA in the absence of chemical substance” value (yeast gene YJR104C)?
A: 1.2

Q: What about the “The level of expressed mRNA in the presence of chemical substance/The level of expressed mRNA in the absence of chemical substance” value (yeast gene YKL026C) of the same compound?
A: 4.9

Q: And the “The level of expressed mRNA in the presence of chemical substance/The level of expressed mRNA in the absence of chemical substance” value (yeast gene YKL064W)?
A: 0.8

Q: What about the “The level of expressed mRNA in the presence of chemical substance/The level of expressed mRNA in the absence of chemical substance” value (yeast gene YKR066C) of the same compound?
A: 0.7

Q: What about the “The level of expressed mRNA in the presence of chemical substance/The level of expressed mRNA in the absence of chemical substance” value (yeast gene YKR105C) of the same compound?
A: 1.5

Q: And the “The level of expressed mRNA in the presence of chemical substance/The level of expressed mRNA in the absence of chemical substance” value (yeast gene YKR106W)?
A: 1.4

Q: What about the “The level of expressed mRNA in the presence of chemical substance/The level of expressed mRNA in the absence of chemical substance” value (yeast gene YLL028W) of the same compound?
A: 0.5

Q: And the “The level of expressed mRNA in the presence of chemical substance/The level of expressed mRNA in the absence of chemical substance” value (yeast gene YLL057C)?
A: 0.9

Q: What about the “The level of expressed mRNA in the presence of chemical substance/The level of expressed mRNA in the absence of chemical substance” value (yeast gene YLL060C) of the same compound?
A: 2.6

Q: What about the “The level of expressed mRNA in the presence of chemical substance/The level of expressed mRNA in the absence of chemical substance” value (yeast gene YLR043C) of the same compound?
A: 1.8

Q: And the “The level of expressed mRNA in the presence of chemical substance/The level of expressed mRNA in the absence of chemical substance” value (yeast gene YLR046C)?
A: 0.8

Q: And the “The level of expressed mRNA in the presence of chemical substance/The level of expressed mRNA in the absence of chemical substance” value (yeast gene YML028W)?
A: 1.3

Q: What about the “The level of expressed mRNA in the presence of chemical substance/The level of expressed mRNA in the absence of chemical substance” value (yeast gene YML116W) of the same compound?
A: 1.4

Q: What about the “The level of expressed mRNA in the presence of chemical substance/The level of expressed mRNA in the absence of chemical substance” value (yeast gene YMR015C) of the same compound?
A: 0.9

Q: And the “The level of expressed mRNA in the presence of chemical substance/The level of expressed mRNA in the absence of chemical substance” value (yeast gene YMR038C)?
A: 0.8

Q: What about the “The level of expressed mRNA in the presence of chemical substance/The level of expressed mRNA in the absence of chemical substance” value (yeast gene YNL239W) of the same compound?
A: 1.2

Q: What about the “The level of expressed mRNA in the presence of chemical substance/The level of expressed mRNA in the absence of chemical substance” value (yeast gene YNL241C) of the same compound?
A: 1.0

Q: And the “The level of expressed mRNA in the presence of chemical substance/The level of expressed mRNA in the absence of chemical substance” value (yeast gene YNL259C)?
A: 1.2

Q: What about the “The level of expressed mRNA in the presence of chemical substance/The level of expressed mRNA in the absence of chemical substance” value (yeast gene YOL158C) of the same compound?
A: 0.9

Q: What about the “The level of expressed mRNA in the presence of chemical substance/The level of expressed mRNA in the absence of chemical substance” value (yeast gene YOR031W) of the same compound?
A: 3.4

Q: And the “The level of expressed mRNA in the presence of chemical substance/The level of expressed mRNA in the absence of chemical substance” value (yeast gene YOR153W)?
A: 1.1

Q: And the “The level of expressed mRNA in the presence of chemical substance/The level of expressed mRNA in the absence of chemical substance” value (yeast gene YOR247W)?
A: 1.4

Q: What about the “The level of expressed mRNA in the presence of chemical substance/The level of expressed mRNA in the absence of chemical substance” value (yeast gene YOR251C) of the same compound?
A: 1.8

Q: And the “The level of expressed mRNA in the presence of chemical substance/The level of expressed mRNA in the absence of chemical substance” value (yeast gene YOR273C)?
A: 1.0

Q: And the “The level of expressed mRNA in the presence of chemical substance/The level of expressed mRNA in the absence of chemical substance” value (yeast gene YPL163C)?
A: 0.9

Q: What about the “The level of expressed mRNA in the presence of chemical substance/The level of expressed mRNA in the absence of chemical substance” value (yeast gene YPR200C) of the same compound?
A: 5.0
